Test results: PMC6737244, “Cathelicidin Peptides Restrict Bacterial Growth via Membrane Perturbation and Induction of Reactive Oxygen Species” (mBio, 2019)
Ends that are not written are not given here.

What was measured:
[1] = test system: Enterobacter cloacae OC4080; type: cell-based
Procedure: (§1) MICs were determined by using the broth microdilution method based on the general recommendations of the Clinical and Laboratory Standards Institute (CLSI). Bacteria were grown in CAMHB overnight. They were then diluted into fresh medium the following morning and grown to early log phase. The cultures were then diluted to approximately 5 × 10^5 CFU ml^−1, and 100 μl was added to sterile 96-well polypropylene microtiter plates (Corning, NY, USA) preloaded with twofold dilutions of antimicrobial peptides. […] All MIC assays were determined from at least three independent assays.

[2] = test system: Enterobacter cloacae OC4092; type: cell-based
Procedure: as §1

[3] = test system: Escherichia coli ATCC 25922; type: cell-based
Procedure: as §1

[4] = test system: Escherichia coli ATCC 35218; type: cell-based
Procedure: as §1

[5] = test system: Escherichia coli MC4100a; type: cell-based
Procedure: as §1

[6] = test system: Escherichia coli OC4075; type: cell-based
Procedure: as §1

[7] = test system: Escherichia coli UTI89; type: cell-based
Procedure: as §1

[8] = test system: Klebsiella pneumoniae 262 (NDM1+); type: cell-based
Procedure: as §1

[9] = test system: Klebsiella pneumoniae 88 (NDM1+); type: cell-based
Procedure: as §1

[10] = test system: Klebsiella pneumoniae ATCC 700603; type: cell-based
Procedure: as §1

[11] = test system: Klebsiella pneumoniae C2; type: cell-based
Procedure: as §1

[12] = test system: Klebsiella pneumoniae OC4110; type: cell-based
Procedure: as §1

[13] = test system: Klebsiella pneumoniae OC8893; type: cell-based
Procedure: as §1

[14] = test system: Pseudomonas aeruginosa ATCC 27853; type: cell-based
Procedure: as §1

[15] = test system: Pseudomonas aeruginosa OC4083; type: cell-based
Procedure: as §1

[16] = test system: Pseudomonas aeruginosa PAO1; type: cell-based
Procedure: as §1

[17] = test system: V. cholerae; experiment: SYTOX Green membrane damage, single-cell imaging; type: cell-based, Vibrio cholerae; conditions: for Number of fluorescent cells: V. cholerae, 25, 50 or 100 nM peptide (Fig. S4; legend says SYTOX Green)
Procedure: To better understand the membrane blebbing event, V. cholerae was treated with B22 in the presence of SYTOX Green and imaged on agarose pads to stabilize cells with compromised envelopes. SYTOX Green is a fluorescent nucleic acid stain that is impermeant to live cells and is used to distinguish dead or dying cells in a population ([17]). Cells were treated with a sublethal (1 μM) concentration of B22 in order to visualize physiological changes in susceptible and unaffected cells simultaneously. Time-lapse phase-contrast imaging was used to monitor tip-to-tip cell length and membrane integrity.
SYTOX Green (Invitrogen, Carlsbad, CA, USA) uptake was used to monitor the effect of the AMPs on bacterial membranes. Mid-log cells were resuspended in CAMHB to 1 × 10^6 CFU/ml and seeded into microfluidic chambers as described above. The cells were then flushed with medium containing 0.1 μM SYTOX Green for 5 min. The same medium was used for control cells, while the medium for treatment samples also included AMP at the indicated concentration. Fluorescence was detected by microscopy as described earlier using the GFP filter set.

[18] = test system: V. cholerae; experiment: Single-cell real-time phase-contrast imaging in microfluidic chambers; type: cell-based, Vibrio cholerae; conditions: 2 μM peptide, continuous flow
Procedure: To better understand the antimicrobial activity of the peptides, we developed a single-cell, real-time imaging assay to monitor the disruption of V. cholerae cells. Bacteria were seeded into microfluidic chambers and grown under continuous flow before imaging by phase-contrast microscopy. Untreated V. cholerae cells retained their characteristic comma shape, cell length (1 by 2 μm), and membrane integrity (Fig. S2). Conversely, cells treated with 2 μM B22 (or B22a) began losing their shape and were noticeably shorter within 30 s (Fig. S2).
Imaging of individual cells was conducted using the CellAsic microfluidic perfusion system (ONIX) with integrated temperature controller and B04A bacterial microfluidic plates (EMD Millipore, Billerica, MA). The CellAsic ONIX FG software (v 5.0.2.0) was used to control flow rate and deliver fresh medium with or without antimicrobial peptide (AMP). The chambers were loaded by perfusion of 50 μl of a 10^6 cells/ml bacterial suspension at 2 lb/in^2 for 15 s to prime the cells followed by 4 lb/in^2 for 15 s to trap the cells. The chamber was then rinsed at 1 lb/in^2 for 30 s followed by 5 lb/in^2 for 5 min. To quickly switch solutions, medium was perfused at 10 lb/in^2 for 10 s, and then flow was reduced to 2 lb/in^2 for the remainder of the imaging.

[19] = test system: S. aureus; experiment: Growth of cultures (OD600) with sublethal peptide; type: cell-based, Staphylococcus aureus; conditions: for Effect on growth of S. aureus cultures: 30 nM peptide, CAMHB, OD600
Procedure: To examine this further, we monitored the growth of S. aureus cultures after the addition of 30 nM B22 or B22a. This concentration is in the biologically relevant range of peptide that is produced by mammals ([13]). […] Cell growth recovered at later time points (data not shown).

[20] = test system: S. aureus; experiment: CellROX ROS production, imaging; type: cell-based, Staphylococcus aureus; conditions: for CellROX oxidative signal, parental strain: S. aureus WT; for CellROX oxidative signal, parental strain / CellROX oxidative signal, sodA or sodM null mutants: 100 nM, 30 min; for CellROX oxidative signal, sodA or sodM null mutants: S. aureus sodA or sodM
Excerpt: (§2) The growth rate of the sodA mutant in the absence of peptide was lower than that of the wild type (WT), underscoring the importance of effectively controlling O2^− accumulation.

[21] = test system: E. faecalis; experiment: CellROX ROS production, imaging; type: cell-based, Enterococcus faecalis; conditions: 500 nM, 2.5 μM CellROX
Excerpt: as §2

[22] = test system: E. coli; experiment: Growth of cultures (OD600) with sublethal peptide; conditions: nanomolar (30 nM) peptide, means of four data sets
[23] = test system: E. cloacae; experiment: Growth of cultures (OD600) with sublethal peptide; conditions: nanomolar (30 nM) peptide, means of four data sets
[24] = test system: V. cholerae; experiment: Growth of cultures (OD600) with sublethal peptide; conditions: nanomolar (30 nM) peptide, means of four data sets
[25] = test system: P. aeruginosa biofilms; experiment: Established biofilm in flow cell, LIVE/DEAD staining; conditions: 100 nM
[26] = test system: Vibrio cholerae C6075; type: cell-based; conditions: CAMHB, 16 to 18 h, at least three independent assays
Procedure: as §1

Substance	MIC [1]	MIC [2]	MIC [3]	MIC [4]	MIC [5]	MIC [6]	MIC [7]	MIC [8]	MIC [9]	MIC [10]	MIC [11]	MIC [12]	MIC [13]	MIC [14]	MIC [15]	MIC [16]	Number of fluorescent cells [17]	Time until cells began losing shape and were noticeably shorter [18]	Effect on growth of S. aureus cultures [19]	CellROX oxidative signal, parental strain [20]	other results
FRKKLKKLFKKLSPVIPLLKLG [B22]	4 µM	4 µM	2 µM	4 µM	4 µM	4 µM	2 µM	4 µM	4 µM	2 µM	4 µM	4 µM	4 µM	4 µM	2 µM	4 µM	increased	≤ 30 s	reduced the initial growth rate	weak signal	Share of population with strong cytoplasmic SYTOX Green signal ([17]; 1 μM (sublethal), agarose pads, SYTOX Green): approximately 35%; Decrease in cell contrast of dying cells ([17]; 1 μM, agarose pads, time-lapse phase contrast): > 90%; Effect on growth of WT strain ([19]; S. aureus WT, 30 nM): slowed the growth; Effect on growth of sodA mutant ([19]; S. aureus sodA, 30 nM, compared with WT): to an even greater extent; CellROX oxidative signal, sodA or sodM null mutants [20]: strong oxidative signal; CellROX oxidative signal ([20]; S. aureus, 500 nM, 2.5 μM CellROX): fluorescent burst; CellROX oxidative signal [21]: fluorescent burst; Effect on growth rate [22]: reproducibly reduced the growth rate; Effect on growth rate [23]: reproducibly reduced the growth rate; Effect on growth rate [24]: reproducibly reduced the growth rate; Drop in biofilm biomass ([25]; 4-h period, continuous flow): 50%; Cell death in biofilm (spike) ([25]; after 1 h): > 50
FRKKLKKLFKKLSPVIPLLKLG-NH2 [B22a]	4 µM	4 µM	2 µM	2 µM	4 µM	2 µM	2 µM	4 µM	2 µM	2 µM	2 µM	2 µM	2 µM	2 µM	2 µM	2 µM	increased	≤ 30 s	reduced the initial growth rate	weak signal	MIC [26]: 4 µM; CellROX oxidative signal, sodA or sodM null mutants [20]: strong oxidative signal; Effect on growth rate [22]: reproducibly reduced the growth rate; Effect on growth rate [23]: reproducibly reduced the growth rate; Effect on growth rate [24]: reproducibly reduced the growth rate
